The target in assay [1] is Protease (Human immunodeficiency virus 1) (UniProt Q9YQ12). As to the kind of experiment: Time dependent inhibition of HIV1 protease by standard fluorimetric assay.
For assay [2] the target is unchanged. As to the kind of experiment: Inhibition of HIV1 protease assessed as compound epoxide ring interaction with enzyme active site by X-ray crystallography.
The target is the same in assay [3]. As to the kind of experiment: Covalent inhibition of HIV1 protease assessed as covalent modification of enzyme residues by ESI-MS method.
In another assay the target is Protease (Human immunodeficiency virus 1, UniProt Q9YQ12). Briefly: Inhibition of HIV1 protease by standard fluorimetric assay.
The target in assay [4] is Protease (Human immunodeficiency virus 1) (UniProt Q9YQ12). As to the kind of experiment: Irreversible inhibition of HIV1 protease by standard fluorimetric assay.

Activity calls are given as the source filed them. The calls are words filed in the database; no cut-off is given here.

A word on the IC50: it is the point on the concentration scale where inhibition reaches its midpoint. Read a high IC50 as weaker potency. Take `CC(C)[C@H](NC(=O)COc1ccccc1)C(=O)N[C@@H](Cc1ccccc1)[C@@H](O)[C@@H]1O[C@H]1Cc1ccccc1`: the inhibition entry in assay [1], in assay [3] and in assay [4] was “inactive” throughout. Moreover, in assay [2], the inhibition entry was “Active”. In addition, the IC50 on Protease is 670 nM.
